Data on one molecule can be found in patent US20080249043A1, “Methods and Compositions Involving Protein Kinase C-Delta” (priority 2004, published 2008).

Assay [1] deals with HeLa cells. Briefly: CL distribution in mitochondria by NAO staining and flow cytometry in HeLa cells. As to conditions: 5 μM AD198 4 h. It is filed as cell-based. How it is done: (a) HeLa cells were treated with 5 μM AD198 or DMSO as control for 4 h. Cells were stained with different concentrations of NAO and the median fluorescent intensity was determined by flow cytometry. (b) The median fluorescent intensity value of control cells stained with 35 μM NAO was considered as 100% and used to calculate the percentages in each NAO concentration. Results were average of two independent experiments. (c) After transfection for 48 h, HeLa-control, HeLa-PLS3 and HeLa-PLS3(T21D) cells were stained with different concentrations of NAO and the median fluorescent intensity was determined by flow cytometry. The median fluorescent intensity value of 35 μM NAO was considered as 100% and used to calculate the percentage in each NAO concentration. Results were average of two independent experiments.
Analysis of CL distribution in the mitochondria outer membrane—NAO was used to determine the distribution of CL in mitochondria (Garcia Fernandez, et al. Anal Biochem 328:174-180 (2004)). When NAO binds CL at 2:1 ratio (in the saturated state), fluorescence emission occurs at 630 nm. When cells were incubated with increasing concentrations of NAO, NAO saturates CL in the outer member first and then the inner member of mitochondria. Lower concentrations of NAO (2.5-12 μM) were used to saturate CL in the mitochondrial outer member and to measure the amount of CL in that compartment. […]

Assay [2] has as its system PLS3. As to the kind of experiment: PLS3 threonine phosphorylation: Ni-bead pulldown of His-tagged PLS3, Western blot with PT antibody, HeLa cells. It is filed as cell-based. Particulars: HeLa cells with His-tagged PLS3, AD198 0, 2, 4 and 6 h. How it is done:
Pulldown of His-tagged proteins from transfected HeLa cells—Transfected HeLa cells were washed with ice-cold phosphate-buffered saline (PBS) and incubated in the lysis buffer (50 mM NaH2PO4, 500 mM NaCl, 20 mM imidazole, 1% Triton X-100, 20 mM 2-mercaptoethanol, pH8.0) for 5 min and sonicated briefly on ice. The lysates were centrifuged at 10,000×g for 10 min at 4° C. The supernatant was saved and the protein concentration was measured with the Bio-Rad protein assay (Bio-Rad Laboratories, Hercules, Calif.) and adjusted to same concentrations for each sample. The supernatants were incubated with Ni-beads on a shaker for 2 h at 4° C. Beads were then pelleted at 800×g for 2 min at 4° C. and washed with ice-cold wash buffer (50 mM NaH2PO4, 500 mM NaCl, 20 mM imidazole, 1% Triton X-100, pH8.0) for five times. Beads were resuspended in SDS sample buffer and analyzed by Western blotting.
Western blot analysis—Equal amounts of protein were analyzed by 10% SDS-PAGE and electrotransferred to Immobilon-P membranes (Millipore Corporation, Bedford, Mass.). Monoclonal PKC-δ, PT, and β-actin and polyclonal VDAC antibodies were used at 1:1,000 and polyclonal PLS3 antibody was used at 1:2,000 for immunoblotting. Secondary anti-mouse or anti-rabbit antibodies conjugated with horseradish peroxidase were used at 1:2,000 and incubated with the membrane for 1 h at room temperature. […]
Background: Immunoblotting shows a protein as a band on a membrane.

For `CCCCC(=O)OCC(=O)[C@]1(O)Cc2c(O)c3c(c(O)c2[C@@H](O[C@H]2C[C@H](NCc4ccccc4)[C@H](O)[C@H](C)O2)C1)C(=O)c1c(OC)cccc1C3=O` [AD198, N-benzyladriamycin-14-valerate], the “absolute NAO fluorescence (amount of CL)” value in assay [1] (HeLa cells) is recorded as “decrease in absolute NAO fluorescence”. For the same molecule, in assay [1] (NAO concentrations lower than 9 μM), the “percentage of CL in the outer membrane” value is reported as “higher percentage of CL than control cells”. In assay [2], the “threonine phosphorylation of PLS3” value is recorded as “steadily increased”.
